Patent US9708325B2, “Sulfonimidoylpurinone compounds and derivatives for the treatment and prophylaxis of virus infection” (Hoffmann-La Roche Inc., priority 2015, dated 2017)
Where two headings read alike, the source gives them in different places.

What was measured:
CYP3A4 = assay: Cytochrome P450 induction screening assay, mRNA induction in human cryopreserved hepatocytes; type: in vitro ADME; settings: 24 hours exposure
Excerpt: Induction of cytochrome P450 enzymes is associated with an increased prevalence of clinical drug-drug interactions. The clinical consequences of induction may be therapeutic failure caused by a decreased systemic exposure of the drug itself or a co-administered therapy, or toxicity as a result of increased bioactivation. Cytochrome P450 (CYP450) induction assay has been used to understand the potential drug-drug interaction liabilities in drug discovery stage. Human cryopreserved hepatocytes (Life Technologies, Carlsbad, USA) were thawed and cultured in collagen I coated 96-well plates with a density of 52,000 cells/well. After attachment, hepatocyte maintenance medium (HMM; Lonza, Switzerland) was changed after cells were pre-cultured overnight. […] Medium change was then performed and cells were exposed for 24 hours to test compounds, positive inducer compounds, or vehicle (0.1% DMSO), respectively. At the end of the compound exposure period, medium was removed and cells lysed using 100 μL/well MagNA Pure LC RNA isolation tissue lysis buffer (Roche Diagnostics AG, Rotkreuz, Switzerland). […] mRNA isolation was performed using the MagNA Pure 96 system (Roche Diagnostics AG, Rotkreuz, Switzerland) and the respective cellular RNA large volume kit (Roche Diagnostics AG, Rotkreuz, Switzerland) from thawed samples diluted 1:1 with PBS. […] The resulting cDNA was diluted with 40 μL of H2O before using for qRT-PCR. qRT-PCR was performed by using the forward and the reverse primer, the corresponding Universal Probe Library (all from Microsynth, Balgach, Switzerland) and the Taqman Fast advanced master mix (Applied Biosystems), on an ABI 7900 machine (Applied Biosystems). qRT-PCR Ct-values for the respective P450s were put into relation to the Ct-value of RN18S1 (microsynth, Balgach, Switzerland) of the same sample. Doing so, a respective Δct-value was calculated. Using the average of all Δct-values for the vehicle control samples, a ΔΔct-value was calculated for each sample (ΔΔct-value(sample)=Δct-value(sample)−average of Δct-value of all vehicle controls). […] The individual fold induction values were then averaged per treatment condition (usually n=3 biological replicates).

human TLR8 = human TLR8 (Homo sapiens (Human), UniProt Q9NR97); assay: HEK-Blue-hTLR8 cells assay and selectivity index; type: cell-based; settings: EC50(TLR8) value/EC50(TLR7) value
Protocol: A stable HEK-Blue-hTLR8 cell line was purchased from InvivoGen (Cat.#: HEK-Blue-htlr8, San Diego, Calif., USA). These cells were designed for studying the stimulation of human TLR8 by monitoring the activation of NF-κB. […] Therefore the reporter expression was regulated by the NF-κB promoter upon stimulation of human TLR8 for 20 hrs. The cell culture supernatant SEAP reporter activity was determined using QUANTI-Blue™ kit (Cat.#: rep-qb1, Invivogen, San Diego, Ca, USA) at a wavelength of 640 nm, a detection medium that turns purple or blue in the presence of alkaline phosphatase.
HEK-Blue-hTLR8 cells were incubated at a density of 250,000˜450,000 cells/mL in a volume of 180 μL in a 96-well plate in Dulbecco's Modified Eagle's medium (DMEM) containing 4.5 g/L glucose, 50 U/mL penicillin, […], […], 2 mM L-glutamine, 10% (V/V) heat-inactivated fetal bovine serum for 24 hrs. Then the HEK-Blue-hTLR8 cells were incubated with addition of 20 μL test compound in a serial dilution in the presence of final DMSO at 1% and perform incubation under 37° C. in a CO2 incubator for 20 hrs. Then 20 μL of the supernatant from each well was incubated with 180 μL Quanti-blue substrate solution at 37° C. for 2 hours and the absorbance was read at 620˜655 nm using a spectrophotometer. The signalling pathway that TLR8 activation leads to downstream NF-κB activation has been widely accepted, and therefore similar reporter assay was also widely used for evaluating TLR8 agonist (Tsuneyasu Kaisho and Takashi Tanaka, Trends in Immunology, Volume 29, Issue 7, July 2008, […]; Hiroaki Hemmi et al, Nature Immunology 3, 196-200 (2002)).
The ratio of TLR8 agonism activity compared to TLR7 agonism activity was defined as the selectivity index (EC50 (TLR8) value/EC50(TLR7) value) and calculated accordingly.

[1] = Single dose PK after 1 mg/kg intravenous dosing to rat; type: in vivo, Male Wister-Han Rats; settings: IV 1 mpk
Protocol: The single dose PK in Male Wister-Han Rats was performed to assess pharmacokinetic properties of tested compounds. Two groups of animals were dosed via bolus intravenous (IV) of the respective compound. Blood samples (approximately 20 μL) were collected via Jugular vein or an alternate site at 5 min, 15 min, 30 min, 1 hr, 2 hr, 4 hr, 7 hr and 24 hr post-dose for IV group. Blood samples were placed into tubes containing EDTA-K2 anticoagulant and centrifuged at 5000 rpm for 6 min at 4° C. to separate plasma from the samples. Following centrifugation, the resulting plasma was transferred to clean tubes for bioanalysis on LC/MS/MS. The pharmacokinetic parameters were calculated using non-compartmental module of WinNonlin® Professional 6.2. […] Therefore, compounds of present invention potentially could lead to less dose frequency and lower dose in clinical application.

[2] = 7 hrs (row printed 8**), read-out: Mean plasma concentration
[3] = male, Wistar-Han, plasma, iv, 1 mg/kg, 0.083 h
[4] = male, Wistar-Han, plasma, iv, 1 mg/kg, 0.25 h
[5] = male, Wistar-Han, plasma, iv, 1 mg/kg, 0.5 h
[6] = male, Wistar-Han, plasma, iv, 1 mg/kg, 1 h
[7] = male, Wistar-Han, plasma, iv, 1 mg/kg, 2 h
[8] = male, Wistar-Han, plasma, iv, 1 mg/kg, 4 h

Sequence of human TLR8 (Q9NR97 27-1041): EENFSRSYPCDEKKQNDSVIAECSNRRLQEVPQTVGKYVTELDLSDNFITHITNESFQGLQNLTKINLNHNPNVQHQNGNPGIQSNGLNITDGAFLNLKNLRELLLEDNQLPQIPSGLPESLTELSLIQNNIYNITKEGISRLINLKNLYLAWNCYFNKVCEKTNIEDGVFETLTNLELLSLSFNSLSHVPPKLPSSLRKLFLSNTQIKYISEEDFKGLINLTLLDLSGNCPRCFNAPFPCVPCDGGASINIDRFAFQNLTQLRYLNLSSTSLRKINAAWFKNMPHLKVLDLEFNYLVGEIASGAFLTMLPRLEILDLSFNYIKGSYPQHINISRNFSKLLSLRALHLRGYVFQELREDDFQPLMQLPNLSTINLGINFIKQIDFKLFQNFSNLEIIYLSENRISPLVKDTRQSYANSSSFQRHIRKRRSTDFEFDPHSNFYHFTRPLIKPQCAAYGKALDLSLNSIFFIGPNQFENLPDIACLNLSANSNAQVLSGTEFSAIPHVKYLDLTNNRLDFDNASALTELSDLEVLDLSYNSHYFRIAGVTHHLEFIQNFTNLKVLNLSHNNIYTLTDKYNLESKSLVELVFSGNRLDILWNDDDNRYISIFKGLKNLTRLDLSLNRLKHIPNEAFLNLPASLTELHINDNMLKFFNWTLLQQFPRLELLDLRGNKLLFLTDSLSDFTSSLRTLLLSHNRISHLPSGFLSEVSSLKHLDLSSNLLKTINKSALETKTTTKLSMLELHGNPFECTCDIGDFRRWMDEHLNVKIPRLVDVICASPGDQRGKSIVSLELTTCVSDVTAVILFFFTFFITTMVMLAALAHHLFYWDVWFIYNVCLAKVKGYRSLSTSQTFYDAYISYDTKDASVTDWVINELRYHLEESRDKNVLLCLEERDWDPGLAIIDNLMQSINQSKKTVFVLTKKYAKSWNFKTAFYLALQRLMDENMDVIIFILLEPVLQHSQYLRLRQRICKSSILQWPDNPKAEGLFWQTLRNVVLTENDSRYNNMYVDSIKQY

SMILES	Relative induction of Positive control (10 μM Rifampicin) (%) (CYP3A4)	CO [1] [nM]	concentration at 4 h [1, 2] [nM]	concentration at 0.083 h [1, 3] [nM]	concentration at 0.25 h [1, 4] [nM]	concentration at 0.5 h [1, 5] [nM]	concentration at 1 h [1, 6] [nM]	concentration at 2 h [1, 7] [nM]	concentration at 4 h [1, 8] [nM]	other results
CCCS(=N)(=O)c1nc(N)c2[nH]c(=O)n(Cc3ccccc3)c2n1 (single isomer, unassigned) [Example 4-A, 6-Amino-9-benzyl-2-(propylsulfonimidoyl)-7H-purin-8-one]	−0.63									
CCCS(=N)(=O)c1nc(N)c2[nH]c(=O)n(Cc3ccccc3)c2n1 (single isomer, unassigned) [Example 4-B, 6-Amino-9-benzyl-2-(propylsulfonimidoyl)-7H-purin-8-one]	−0.90									
CCS(=N)(=O)c1nc(N)c2[nH]c(=O)n(Cc3ccc(Cl)cc3)c2n1 (single isomer, unassigned) [Example 70-A, 6-Amino-9-[(4-chlorophenyl)methyl]-2-(ethylsulfonimidoyl)-7H-purin-8-one]	0.42	3052	6.28	3050	1340	718	354	110	20.5	Selective index (human TLR8): >18518
CCS(=N)(=O)c1nc(N)c2[nH]c(=O)n(Cc3ccc(Cl)cc3)c2n1 (single isomer, unassigned) [Example 70-B, 6-Amino-9-[(4-chlorophenyl)methyl]-2-(ethylsulfonimidoyl)-7H-purin-8-one]	−0.42	2782	16.7							AUC0-inf [1]: 1.894 µM·h; CL [1]: 48.7 mL/min/kg; concentration at 4 h ([1]; 0.083 h, read-out: Mean plasma concentration): 2782 nM; concentration at 4 h ([1]; 0.25 h, read-out: Mean plasma concentration): 1434 nM; concentration at 4 h ([1]; 0.5 h, read-out: Mean plasma concentration): 862 nM; concentration at 4 h ([1]; 1 h, read-out: Mean plasma concentration): 461 nM; concentration at 4 h ([1]; 2 h, read-out: Mean plasma concentration): 173 nM; concentration at 4 h ([1]; 4 h, read-out: Mean plasma concentration): 29.1 nM
CCS(=N)(=O)c1nc(N)c2[nH]c(=O)n(Cc3ccc(C)cc3)c2n1 (single isomer, unassigned) [Example 71-A, 6-Amino-2-(ethylsulfonimidoyl)-9-(p-tolylmethyl)-7H-purin-8-one]	−0.10	1848		1850	1000	537	292	115	18.2	
